Laboratory results reported in patent US12630529B2, “GCN2 modulator compounds” (ALESTA THERAPEUTICS BV, priority 2020, dated 2026).

Experiments:
[1] = tested on: CHOP (DDIT3) reporter; test: GCN2-induction of CHOP and apoptosis in 3T3 fibroblasts with CHOP (DDIT3) reporter construct; type: cell-based, murine; conditions: for GCN2 activation / GCN2-induced CHOP activation: murine 3T3 CHOP (mCherry) reporter fibroblasts, increasing concentrations, in the presence of halofuginone or histidinol; for apoptosis induced by halofuginone / late-stage apoptosis induced by histidinol: murine 3T3 WT cells; for apoptosis induced by halofuginone: co-treatment with halofuginone; for late-stage apoptosis induced by histidinol: co-treatment with histidinol
Experimental: The CHOP construct comprised the […] (UTR) of mouse DDIT3 mRNA fused to a sequence encoding the fluorescent protein mCherry.
Cells were seeded at 5,000 cells per well in flat bottom 96-well plates in 100 μL DMEM low glucose media without phenol red, and supplemented with 10% FBS and 2 mM glutamine. After 24 hours, the exemplary compounds, and either tunicamycin, halofuginone, or histidinol, were added together with 100 nM of fluorescent apoptosis stain (YO-PRO™-1 Iodide; Thermo Fisher) to detect apoptotic cells. Cells were placed in a live-cell imaging and analysis platform (IncuCyte ZOOM®; Essenbio) set up in a humidified incubator at 37° C. and the plates were scanned every 4 hours for up 120 hours, at 10× magnification, to determine cell confluence and cell death. Experiments were performed in duplicate with 3 images collected per well, and analyzed using live-cell imaging and analysis software (IncuCyte ZOOM® 2018A software; Essenbio).

[2] = target: T1, GCN2 (Homo sapiens, UniProt Q9P2K8); test: GCN2 enzyme inhibition assay (Reaction Biology EIF2AK4/GCN2 kinase assay); type: biochemical; set-up: purchased Reaction Biology Corp; conditions: human GCN2 enzyme activity, 10 μM ATP, 20 μM peptide substrate
T1 sequence (Q9P2K8 whole entry): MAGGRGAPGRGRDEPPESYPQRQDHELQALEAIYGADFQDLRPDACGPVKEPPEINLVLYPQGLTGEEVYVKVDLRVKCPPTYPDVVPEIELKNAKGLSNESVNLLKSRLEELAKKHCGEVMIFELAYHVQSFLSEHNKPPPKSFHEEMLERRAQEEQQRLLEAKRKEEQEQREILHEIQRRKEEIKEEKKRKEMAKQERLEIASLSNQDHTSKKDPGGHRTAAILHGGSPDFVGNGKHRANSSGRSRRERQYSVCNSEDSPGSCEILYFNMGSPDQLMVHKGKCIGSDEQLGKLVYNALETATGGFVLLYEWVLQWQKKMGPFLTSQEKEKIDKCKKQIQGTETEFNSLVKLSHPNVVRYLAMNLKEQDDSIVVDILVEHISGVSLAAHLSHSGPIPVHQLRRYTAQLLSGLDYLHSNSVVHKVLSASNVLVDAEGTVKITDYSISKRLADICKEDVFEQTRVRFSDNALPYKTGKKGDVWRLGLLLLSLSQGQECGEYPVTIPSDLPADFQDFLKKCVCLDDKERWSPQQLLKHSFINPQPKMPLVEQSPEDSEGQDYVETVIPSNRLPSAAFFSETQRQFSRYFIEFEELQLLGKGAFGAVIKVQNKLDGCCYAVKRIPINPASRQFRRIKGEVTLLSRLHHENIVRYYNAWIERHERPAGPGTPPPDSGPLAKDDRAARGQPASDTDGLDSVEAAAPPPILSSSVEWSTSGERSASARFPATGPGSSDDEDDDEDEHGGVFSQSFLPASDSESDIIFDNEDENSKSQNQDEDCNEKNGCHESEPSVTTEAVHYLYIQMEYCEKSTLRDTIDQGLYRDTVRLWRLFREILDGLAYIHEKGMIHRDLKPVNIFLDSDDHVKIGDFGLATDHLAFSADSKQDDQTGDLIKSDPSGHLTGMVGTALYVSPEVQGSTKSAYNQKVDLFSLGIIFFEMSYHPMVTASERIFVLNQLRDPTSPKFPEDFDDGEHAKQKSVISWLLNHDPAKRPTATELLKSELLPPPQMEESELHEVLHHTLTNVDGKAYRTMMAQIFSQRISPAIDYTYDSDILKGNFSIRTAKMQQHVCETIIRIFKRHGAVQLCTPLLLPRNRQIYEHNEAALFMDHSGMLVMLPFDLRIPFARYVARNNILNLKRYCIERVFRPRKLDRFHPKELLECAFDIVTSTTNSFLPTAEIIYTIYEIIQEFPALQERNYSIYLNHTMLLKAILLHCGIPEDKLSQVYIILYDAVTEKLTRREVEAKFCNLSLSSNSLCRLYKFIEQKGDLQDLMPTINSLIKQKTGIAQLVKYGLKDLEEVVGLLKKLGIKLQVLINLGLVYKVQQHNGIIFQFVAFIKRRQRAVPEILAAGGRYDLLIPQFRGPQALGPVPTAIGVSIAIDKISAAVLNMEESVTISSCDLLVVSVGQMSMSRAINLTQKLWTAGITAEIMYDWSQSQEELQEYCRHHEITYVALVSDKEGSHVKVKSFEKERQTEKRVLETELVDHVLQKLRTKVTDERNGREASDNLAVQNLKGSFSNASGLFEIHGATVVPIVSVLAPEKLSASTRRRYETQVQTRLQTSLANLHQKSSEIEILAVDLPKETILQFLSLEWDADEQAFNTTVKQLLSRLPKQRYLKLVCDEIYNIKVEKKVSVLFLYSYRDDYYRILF
Experimental: In order to validate the above results, human GCN2 enzyme activity was measured in Reaction Biology Corp (EIF2AK4/GCN2 kinase assay). Compounds were tested in 5-dose IC50 mode for non-active compounds and 10-dose IC50 mode for active compounds with 3-fold serial dilution starting at 30 μM and 0.1 μM respectively. Control compound Staurosporine was tested in 10-dose IC50 mode with 4-fold serial dilution starting at 20 μM. Reactions were carried out at 10 μM ATP using 20 μM peptide substrate [GRSRSRSRSR]. For IC50 values: +++ refers to <10 nM of test compound; ++ refers to 10 nM to 100 nM of test compound; + refers to 100 nM to 1,000 nM of test compound and − refers to >1,000 nM of test compound.

[3] = target: T1, GCN2; test: GCN2 activation induced by arginine starvation (Western blot); type: cell-based; set-up: endogenous in cells; host or cells: HT29 and HCT116; conditions: HT29 and HCT116 colorectal cancer cell lines, 24 hours
Experimental: Colorectal cancer cell lines HT29 and HCT116 were seeded at a concentration of 100×10^3 cells per well in 6 well plates, in SILAC DMEM Flex media supplemented with 10% fetal bovine serum, 1 g/L glucose, 2 mM glutamine, 800 μM lysine, and various concentrations of arginine in the absence or presence of Compound 1 and Compound 2 GCN2 inhibitors. Cells were cultured for 24 hours.
Following 24 hours of culture, expression of phosphorylated GCN2 (P-GCN2) and alpha-actinin loading control was assessed by Western blot. Briefly, cells were washed with cold PBS and dissolved in cell lysis buffer containing 1% Triton, supplemented with protease inhibitors and phosphatase inhibitors. All lysates were freshly prepared and normalized using a BCA protein assay before addition of LDS sample buffer and denaturation by boiling the samples for 5 minutes at 95° C. Proteins were separated on 4-12% Bis-Tris protein gels in MOPS SDS buffer and electrophoresis was performed (e.g., Novex NuPAGE® Gel Electrophoresis Systems; Invitrogen). Transfer of the protein samples was performed (e.g., using the Mini Trans-Blot Cell® system; Bio-Rad) with 0.45 μM pore Nitrocellulose/Filter paper sandwiches and transfer buffer at 350 mA for 90 minutes at 4° C. Membranes were blocked for 1 hour with 4% BSA in TBS-Tween at room temperature and incubated with 1:1,000 dilutions of anti-GCN2, phospho-GCN2, α-actinin1, and/or p21 (Waf/Cip1) antibodies overnight at 4° C. Afterwards, membranes were washed 3 times with TBS-Tween and incubated with HRP-conjugated secondary antibodies at 1:20,000 dilution for 1 hour at room temperature.

[4] = target: T2, GCN2 (Mus musculus, UniProt Q9QZ05); test: GCN2 inhibition cell-based assay (P-GCN2 Western blot in Neuro 2a cells); conditions: amino acid deprived media (DMEM lacking L-cysteine and methionine), 3 hours
T2 construct: endogenous in cells; host or cells: Neuro 2a (N2a)
T2 sequence (Q9QZ05 whole entry): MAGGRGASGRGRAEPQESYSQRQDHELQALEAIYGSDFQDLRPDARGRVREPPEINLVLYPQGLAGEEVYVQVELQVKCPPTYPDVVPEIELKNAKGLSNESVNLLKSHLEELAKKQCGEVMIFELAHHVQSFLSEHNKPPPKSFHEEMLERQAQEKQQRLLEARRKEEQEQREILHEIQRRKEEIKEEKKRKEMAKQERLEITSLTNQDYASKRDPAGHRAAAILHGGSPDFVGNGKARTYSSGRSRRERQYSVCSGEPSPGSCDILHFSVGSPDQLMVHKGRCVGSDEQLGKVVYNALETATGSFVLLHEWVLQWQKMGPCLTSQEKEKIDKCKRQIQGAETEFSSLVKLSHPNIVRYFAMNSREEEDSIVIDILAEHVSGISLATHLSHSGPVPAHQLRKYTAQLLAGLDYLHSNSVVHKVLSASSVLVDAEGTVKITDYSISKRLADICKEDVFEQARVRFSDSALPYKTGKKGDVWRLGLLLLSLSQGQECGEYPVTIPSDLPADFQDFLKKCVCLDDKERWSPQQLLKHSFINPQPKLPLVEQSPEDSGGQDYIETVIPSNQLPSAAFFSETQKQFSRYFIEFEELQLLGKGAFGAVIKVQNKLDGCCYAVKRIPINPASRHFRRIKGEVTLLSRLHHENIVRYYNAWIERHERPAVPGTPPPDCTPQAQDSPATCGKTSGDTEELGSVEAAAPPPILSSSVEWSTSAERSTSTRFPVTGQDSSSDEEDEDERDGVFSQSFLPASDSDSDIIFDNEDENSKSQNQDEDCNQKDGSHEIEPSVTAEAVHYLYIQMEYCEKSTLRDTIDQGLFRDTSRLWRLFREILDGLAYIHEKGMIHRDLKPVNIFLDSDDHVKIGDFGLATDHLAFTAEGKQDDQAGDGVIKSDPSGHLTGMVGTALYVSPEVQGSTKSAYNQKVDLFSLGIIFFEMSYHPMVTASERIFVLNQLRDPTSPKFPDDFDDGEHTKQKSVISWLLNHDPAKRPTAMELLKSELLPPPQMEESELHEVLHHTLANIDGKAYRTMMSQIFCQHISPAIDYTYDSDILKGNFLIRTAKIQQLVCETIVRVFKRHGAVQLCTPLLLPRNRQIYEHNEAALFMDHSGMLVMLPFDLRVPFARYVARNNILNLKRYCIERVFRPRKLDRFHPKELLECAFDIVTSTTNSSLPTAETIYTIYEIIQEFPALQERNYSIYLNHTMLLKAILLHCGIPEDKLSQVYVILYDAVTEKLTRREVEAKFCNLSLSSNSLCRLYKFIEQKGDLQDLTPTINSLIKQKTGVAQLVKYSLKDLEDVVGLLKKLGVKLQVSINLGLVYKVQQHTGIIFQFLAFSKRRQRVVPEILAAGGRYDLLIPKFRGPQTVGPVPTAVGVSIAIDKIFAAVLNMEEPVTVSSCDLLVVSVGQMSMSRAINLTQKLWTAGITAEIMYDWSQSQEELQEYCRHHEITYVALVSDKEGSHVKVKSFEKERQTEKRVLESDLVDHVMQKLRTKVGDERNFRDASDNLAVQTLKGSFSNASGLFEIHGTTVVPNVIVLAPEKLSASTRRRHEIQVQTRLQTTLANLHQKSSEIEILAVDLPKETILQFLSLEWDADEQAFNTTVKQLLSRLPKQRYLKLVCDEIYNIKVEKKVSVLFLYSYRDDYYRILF

| IC50 [2] [nM] | p21 expression [3] | IC50 [4] [nM] | Structure (SMILES) | GCN2 activation / GCN2-induced CHOP activation [1] | apoptosis induced by halofuginone [1] | late-stage apoptosis induced by histidinol [1] | activation of GCN2 (P-GCN2 expression) upon arginine depletion [3] |
| --- | --- | --- | --- | --- | --- | --- | --- |
| 10 to 100 | p21 expression is induced | < 10 | COc1ncc(Cl)cc1S(=O)(=O)Nc1ccc(F)c(-c2ccc3nc(N)ncc3c2)c1F [Compound 1] | reduced GCN2 activation | effectively inhibited apoptosis | increased late-stage apoptosis | prevented the activation of GCN2 upon arginine depletion |
| < 10 | p21 expression is induced | < 10 | Nc1ncc2cc(-c3c(F)ccc(NS(=O)(=O)c4cc(Cl)ccc4Cl)c3F)ccc2n1 [Compound 2] | reduced GCN2 activation | effectively inhibited apoptosis | increased late-stage apoptosis | prevented the activation of GCN2 upon arginine depletion |
